# Test results: US11077167B2, “Agent for promoting skeletal muscle injury repair” (Osaka University, priority 2017, dated 2021)
# What was measured:
# angiogenesis = details: Patent Literature 1, Non Patent Literature 1 and 2; compared with VEGF; cited from earlier work
# [1] = test system: Human skeletal muscle satellite cells (HskMSCs); assay: Cell proliferative capacity (WST-1 assay); type: cell-based; details: SV peptide 20 ng/mL; 0-72 hours
# Excerpt: (§1) Human skeletal muscle satellite cells (HskMSCs) were purchased from ScienCell Research Laboratories and used. The medium used for HskMSC culture was the supplier's recommended medium (Skeletal Muscle Cell Medium containing 5% FBS, Skeletal Muscle Cell Growth Supplement, and penicillin/streptomycin solution).
# Human skeletal muscle satellite cells and human skeletal muscle myoblasts were separately seeded at 1.0×10^4 cells/mL in each well of non-treated polystyrene 96-well cell culture plates (Falcon). The SV peptide (20 ng/mL, SV group), the random SV (20 ng/mL, random SV group), or PBS (PBS group) was added to the medium. The plates were cultured at 37° C. in a 5% CO2 atmosphere. After 0, 12, 24, 48, and 72 hours, cell proliferation was assessed using Premix WST-1 Cell Proliferation Assay System (Takara Bio, Japan).
# [2] = test system: muscle injury model rats (incised masseter muscles on both sides); assay: Histological staining of masseter muscles at postoperative week 8, Example 2; type: in vivo, Jcl:SD rats; details: sirius red staining
# Experimental: Incisions were made in masseter muscles on both sides in Jcl:SD rats (10 weeks old) under anesthesia in the same manner as in Example 1. Immediately after muscle incision, 1 mL each of the SV peptide (20 ng/mL) or 1 mL each of PBS was intramuscularly administered into several sites surrounding the cut surfaces. The incision on each side was made along a straight line connecting the lateral angle of the eye and the mandibular angle, extending in depth from the fascia on the skin side to the lateral periosteum on the mandibular ramus. The cut surfaces were subjected to electrocoagulation with an electric scalpel for the arrest of bleeding (see FIG. 1). […]
# Each rat was euthanized at postoperative week 8, and the masseter muscles on both sides were excised. […] Histological characteristics of regenerated muscle fibers at the muscle injury site were assessed on the HE-stained sections. The amount of muscle fibers formed and the diameter of the muscle fibers in the tissue were measured on the sirius red-staining sections.
# [3] = test system: Human skeletal muscle satellite cells (HskMSCs); assay: Chemotactic capacity (Chemotaxicell membrane); type: cell-based; details: SV peptide 20 ng/mL as chemoattractant; 12 hours; vs PBS or random SV
# Experimental: as §1
# (§2) A polycarbonate membrane with a pore size of 8 μm (Chemotaxicell: Kurabo Industries LTD.) was immersed in a 10 μg/mL fibronectin solution at room temperature for 30 minutes for coating the membrane. A medium containing the SV peptide (20 ng/mL, SV group), the random SV (20 ng/mL, random SV group), or PBS (PBS group) as a chemoattractant was added to a lower chamber. On an upper chamber, human skeletal muscle satellite cells and human skeletal muscle myoblasts were separately seeded at 2.0×10^4 cells/mL in DMEM containing 0.1% BSA. A pair of chambers was incubated at 37° C. for 12 hours. The cells on the upper surface of the membrane were removed with a swab, and the membrane was fixed with a 10% neutral buffered formalin solution (Wako Pure Chemical Industries, Ltd.) and stained with hematoxylin. The number of cells migrated to the lower surface of the membrane was measured under an optical microscope.
# [4] = test system: Human skeletal muscle myoblasts (HSMMs); assay: Chemotactic capacity (Chemotaxicell membrane); type: cell-based; details: SV peptide 20 ng/mL as chemoattractant; 12 hours; vs PBS or random SV
# Experimental: Human skeletal muscle myoblasts (HSMMs) were purchased from Lonza and used. The medium used for HSMM culture was the supplier's recommended medium (Skeletal Muscle Growth Media-2 supplemented with SingleQuots Kit).
# as §2
# [5] = Patent Literature 3; cited from earlier work
# mesenchymal cell = details: Patent Literature 2; cited from earlier work
# [6] = test system: Human skeletal muscle satellite cells (HskMSCs); assay: Cell migratory capacity (cell-denuded area); type: cell-based; details: SV peptide 20 ng/mL
# Excerpt: as §1
# Human skeletal muscle satellite cells and human skeletal muscle myoblasts were separately cultured on 60-mm (diameter) dishes (Iwaki) to 100% confluency. From each dish, a 2-mm-wide strip of cells were removed, and the medium was replaced with a medium containing the SV peptide (20 ng/mL, SV group), the random SV (20 ng/mL, random SV group), or PBS (PBS group). Thereafter, culture was continued. Images were taken with a digital camera mounted on a phase-contrast microscope every 12 hours. The cell-denuded area was measured using the image-analysis software ImageJ (NIH, USA). The cell migration percentage was determined by calculating the percentage of reduction in the cell-denuded area relative to the value immediately after cell removal.
# [7] = test system: muscle injury model rats (incised masseter muscles on both sides); assay: Electrophysiological experiment (masseter EMG, Lissajous pattern), Example 1; type: in vivo, Jcl:SD rats; details: 1 week postoperatively
# Experimental: Incisions were made in masseter muscles on both sides in Jcl:SD rats (10 weeks old). Immediately after muscle incision, 1 mL each of the SV peptide (20 ng/mL) was intramuscularly administered into several sites surrounding the cut surfaces. The incision on each side was made along a straight line connecting the lateral angle of the eye and the mandibular angle, extending in depth from the fascia on the skin side to the lateral periosteum on the mandibular ramus. The cut surfaces were subjected to electrocoagulation with an electric scalpel for the arrest of bleeding (see FIG. 1).
# This experiment was performed on rats subjected to incision of masseter muscles on both sides and subsequent administration of the SV peptide into the incised left masseter muscle and of PBS into the incised right masseter muscle. Bipolar needle electrodes were retained in the masseter muscles on both sides, and myogenic potential signals received through connectors fixed to both sides of the parietal bone were monitored. Electromyographic (EMG) data were recorded preoperatively and 1 week postoperatively. Generally, in the electromyogram of masseter muscles recorded during food ingestion, the cutting phase and the grinding phase in the masticatory movement show different waveforms. […]
# Lissajous pattern (FIG. 3). […] Based on this, the chewing side preference was determined.
substance,measurement,setting,value
SVVYGLR [SV peptide],angiogenic activity,angiogenesis,high angiogenic activity that is comparable to that of VEGF
same,cell proliferative capacity,[1],not enhanced
same,amount of scar formation (area of scar tissue formed on the cut surfaces),[2]; SV peptide administration side vs PBS administration side,remarkably reduced from that on the PBS administration side in the PBS group
same,diameter of the muscle fibers,[2]; SV side vs control side in SV group,significantly larger than that on the control side in the same group
same,chemotactic capacity (number of cells migrated to lower surface of membrane),[3],"tended to have a higher chemotactic capacity than that of the counterpart in the PBS group or the random SV group, but there was no significant intergroup difference"
same,chemotactic capacity (number of cells migrated to lower surface of membrane),[4],significantly higher chemotactic capacity than that of the counterpart in the PBS group or the random SV group
same,cardiac function,[5],improves cardiac function
same,mesenchymal cell proliferation,mesenchymal cell,promotes mesenchymal cell proliferation
same,cell migratory capacity,[6],did not affect
same,chewing side preference,"[7]; SV peptide into left, PBS into right masseter muscle",left-side chewing preference was seen postoperatively
same,mean myogenic potential of the left masseter muscle during left-side chewing,"[7]; left = SV peptide side, right = PBS side","reduced postoperatively, but the degree of the reduction was smaller than that in the mean myogenic potential of the right masseter muscle"
